Data reported in ChEMBL document CHEMBL1201862, “PubChem BioAssay data set” (2004).
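The compound was tested at five concentrations on cells cultured in 96-well plates, with a 48-hour exposure period. The concentration for 50% growth inhibition is given as GI50.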 Active and inactive are the calls of the source. Cut-off read from the data, not from the text of the source: active = GI50 up to about 1.1 µM and inactive = higher.

What was measured:
Test in all cases: NCI anticancer screen, dose series, 48 h
UACC-62 = test system: UACC-62
SK-MEL-2 = test system: SK-MEL-2
DU-145 = test system: DU-145
HOP-62 = test system: HOP-62
A549 = test system: A549
SN12C = test system: SN12C
TK-10 = test system: TK-10
SNB-75 = test system: SNB-75
PC-3 = test system: PC-3
HCT-15 = test system: HCT-15
HT-29 = test system: HT-29
COLO 205 = test system: COLO 205
SF-268 = test system: SF-268
IGROV-1 = test system: IGROV-1
HCT-116 = test system: HCT-116
NCI-H226 = test system: NCI-H226
SF-295 = test system: SF-295
OVCAR-3 = test system: OVCAR-3
KM12 = test system: KM12
NCI/ADR-RES = test system: NCI/ADR-RES
NCI-H460 = test system: NCI-H460
OVCAR-8 = test system: OVCAR-8
UACC-257 = test system: UACC-257
Malme-3M = test system: Malme-3M
M14 = test system: M14
SW-620 = test system: SW-620
MDA-MB-231 = test system: MDA-MB-231
EKVX = test system: EKVX
SK-OV-3 = test system: SK-OV-3
SK-MEL-5 = test system: SK-MEL-5
T47D = test system: T47D
SNB-19 = test system: SNB-19
ACHN = test system: ACHN
NCI-H23 = test system: NCI-H23
CAKI-1 = test system: CAKI-1
U-251 = test system: U-251
MOLT-4 = test system: MOLT-4
NCI-H522 = test system: NCI-H522
K562 = test system: K562
UO-31 = test system: UO-31
786-0 = test system: 786-0
MDA-MB-435 = test system: MDA-MB-435
LOX IMVI = test system: LOX IMVI
SF-539 = test system: SF-539
OVCAR-5 = test system: OVCAR-5
Hs-578T = test system: Hs-578T
OVCAR-4 = test system: OVCAR-4
RXF 393 = test system: RXF 393
MDA-N = test system: MDA-N
SK-MEL-28 = test system: SK-MEL-28
BT-549 = test system: BT-549
HOP-92 = test system: HOP-92
HL-60 = test system: HL-60
MCF7 = test system: MCF7
SR = test system: SR
HCC 2998 = test system: HCC 2998
CCRF-CEM = test system: CCRF-CEM
RPMI-8226 = test system: RPMI-8226
A498 = test system: A498

SMILES: C[C@@H]1CC(=O)C[C@@H]2CC[C@H]3[C@@H]4CC[C@H](OC(=O)c5cccc6cc7ccccc7nc56)[C@H]4CC[C@@H]3[C@H]21
- GI50 (UACC-62): 13.3 µM (inactive)
- GI50 (SK-MEL-2): 17.1 µM (inactive)
- GI50 (DU-145): 14 µM (inactive)
- GI50 (HOP-62): 22.8 µM (inactive)
- GI50 (A549): 25.1 µM (inactive)
- GI50 (SN12C): 16.6 µM (inactive)
- GI50 (TK-10): 27.9 µM (inactive)
- GI50 (SNB-75): 15.6 µM (inactive)
- GI50 (PC-3): 12.1 µM (inactive)
- GI50 (HCT-15): 14.2 µM
- GI50 (HT-29): 15.8 µM (inactive)
- GI50 (COLO 205): 22.2 µM (inactive)
- GI50 (SF-268): 6.4 µM (inactive)
- GI50 (IGROV-1): 3.89 µM (inactive)
- GI50 (HCT-116): 14.1 µM (inactive)
- GI50 (NCI-H226): 26.5 µM (inactive)
- GI50 (SF-295): 27.8 µM (inactive)
- GI50 (OVCAR-3): 15.2 µM (inactive)
- GI50 (KM12): 14.3 µM (inactive)
- GI50 (NCI/ADR-RES): 20.9 µM (inactive)
- GI50 (NCI-H460): 14.1 µM (inactive)
- GI50 (OVCAR-8): 16 µM (inactive)
- GI50 (UACC-257): 14.3 µM (inactive)
- GI50 (Malme-3M): 8.71 µM (inactive)
- GI50 (M14): 15.5 µM (inactive)
- GI50 (SW-620): 17.4 µM (inactive)
- GI50 (MDA-MB-231): 15.9 µM (inactive)
- GI50 (EKVX): 16.7 µM (inactive)
- GI50 (SK-OV-3): 25.2 µM (inactive)
- GI50 (SK-MEL-5): 13.2 µM (inactive)
- GI50 (T47D): 13.7 µM (inactive)
- GI50 (SNB-19): 17.7 µM (inactive)
- GI50 (ACHN): 15.7 µM (inactive)
- GI50 (NCI-H23): 14.7 µM (inactive)
- GI50 (CAKI-1): 17.4 µM (inactive)
- GI50 (U-251): 7.11 µM (inactive)
- GI50 (MOLT-4): 3.48 µM (inactive)
- GI50 (NCI-H522): 5.6 µM (inactive)
- GI50 (K562): 8 µM (inactive)
- GI50 (UO-31): 16.9 µM (inactive)
- GI50 (786-0): 11.4 µM (inactive)
- GI50 (MDA-MB-435): 15.8 µM (inactive)
- GI50 (LOX IMVI): 15.6 µM (inactive)
- GI50 (SF-539): 16.7 µM (inactive)
- GI50 (OVCAR-5): 18.8 µM (inactive)
- GI50 (Hs-578T): 21.6 µM (inactive)
- GI50 (OVCAR-4): 13.6 µM (inactive)
- GI50 (RXF 393): 18.1 µM (inactive)
- GI50 (MDA-N): 13.5 µM (inactive)
- GI50 (SK-MEL-28): 28.6 µM (inactive)
- GI50 (BT-549): 26.1 µM (inactive)
- GI50 (HOP-92): 23.3 µM (inactive)

SMILES: C=C1CC[C@](C)(O)[C@@]2(C)CC[C@H]3C(=C(C)C)C(=O)C[C@]3(C)C[C@H]12
- GI50 (UACC-62): 16.5 µM (inactive)
- GI50 (SK-MEL-2): > 50 µM (inactive)
- GI50 (DU-145): > 50 µM (inactive)
- GI50 (HOP-62): > 50 µM (inactive)
- GI50 (A549): 42.6 µM (inactive)
- GI50 (SN12C): > 50 µM (inactive)
- GI50 (TK-10): > 50 µM (inactive)
- GI50 (SNB-75): 29 µM (inactive)
- GI50 (PC-3): 21.1 µM (inactive)
- GI50 (HCT-15): 14.9 µM
- GI50 (HT-29): 18.3 µM (inactive)
- GI50 (COLO 205): 36.1 µM (inactive)
- GI50 (HL-60): 7.6 µM (inactive)
- GI50 (SF-268): > 50 µM (inactive)
- GI50 (IGROV-1): 14.7 µM (inactive)
- GI50 (HCT-116): 14.8 µM (inactive)
- GI50 (MCF7): 28.4 µM (inactive)
- GI50 (SR): 13.4 µM (inactive)
- GI50 (NCI-H226): > 50 µM (inactive)
- GI50 (SF-295): > 50 µM (inactive)
- GI50 (OVCAR-3): 29.9 µM (inactive)
- GI50 (KM12): 21 µM (inactive)
- GI50 (NCI/ADR-RES): 27.7 µM (inactive)
- GI50 (HCC 2998): 23 µM (inactive)
- GI50 (OVCAR-8): > 50 µM (inactive)
- GI50 (UACC-257): > 50 µM (inactive)
- GI50 (CCRF-CEM): 10.9 µM (inactive)
- GI50 (M14): 37.5 µM (inactive)
- GI50 (SW-620): 21.6 µM (inactive)
- GI50 (MDA-MB-231): > 50 µM (inactive)
- GI50 (EKVX): > 50 µM (inactive)
- GI50 (SK-OV-3): > 50 µM (inactive)
- GI50 (SK-MEL-5): 22.1 µM (inactive)
- GI50 (T47D): 26.5 µM (inactive)
- GI50 (SNB-19): > 50 µM (inactive)
- GI50 (ACHN): 42.8 µM (inactive)
- GI50 (NCI-H23): > 50 µM (inactive)
- GI50 (CAKI-1): 22.4 µM (inactive)
- GI50 (U-251): > 50 µM (inactive)
- GI50 (MOLT-4): 10.9 µM (inactive)
- GI50 (NCI-H522): 14.3 µM (inactive)
- GI50 (K562): 8.73 µM (inactive)
- GI50 (UO-31): 20 µM (inactive)
- GI50 (786-0): 14.6 µM (inactive)
- GI50 (MDA-MB-435): 17.5 µM (inactive)
- GI50 (LOX IMVI): 10.4 µM (inactive)
- GI50 (SF-539): > 50 µM (inactive)
- GI50 (RPMI-8226): 17.9 µM (inactive)
- GI50 (OVCAR-5): > 50 µM (inactive)
- GI50 (Hs-578T): > 50 µM (inactive)
- GI50 (OVCAR-4): > 50 µM (inactive)
- GI50 (RXF 393): 18.2 µM (inactive)
- GI50 (SK-MEL-28): 43.7 µM (inactive)
- GI50 (BT-549): 25.8 µM (inactive)
- GI50 (HOP-92): > 50 µM (inactive)
- GI50 (A498): > 50 µM (inactive)
